Assay results published in patent US8470787B2, “Hydrates of erythromycin salts, preparation and use thereof” (priority 2008, dated 2013).

Tests used:
[1] = hygroscopic test according to China Pharmacopeia CP2005; type: physicochemical; conditions: 25° C., relative humidity 75%
[2] = accelerated stability test (sealed vial, 30° C., HPLC content and related substances); type: physicochemical
Description: The hydrates of erythromycin salts according to the present invention can be stably stored. A sample of the above hydrates was sealed in a vial, and an accelerated stability test was conducted at 30° C. and changes of the content and related substances were measured by a HPLC method (C18 reverse phase column, 0.01M KH2PO4-acetonitrile (60:40) as the mobile phase, detective wavelength: 215 nm, column temperature: 35° C., flow rate: 1.0 ml/min) (upon different hydrates of erythromycin salts, such as crystalline hydrates of erythromycin thiocyanate, the pH of the mobile phase can be adjusted and KH2PO4 can be changed into NaH2PO4, the detective wavelength can be changed into 210 nm, and the column temperature can be set at 35-55° C., such as 50° C. for analysis and measurement). […] As compared to the anhydrous of erythromycin salt, the hydrates of erythromycin salts according to the present invention have a lower hygroscopicity, i.e., has a better stability of hygroscopicity, which facilitates the package and storage thereof, or is a more advantageously stable form for storage relative to the anhydrous.

[3] = tested on: Staphylococcus aureus; test: antibacterial activity, tube double dilution method, clinically obtained bacteria; type: cell-based; conditions: 26 strains
[4] = tested on: Staphylococcus epidermidis; test: as above; type: cell-based; conditions: 21 strains
[5] = tested on: Streptococcus hemolyticus; test: as above; type: cell-based; conditions: for MIC50 / MIC90: 16 strains; for MIC: range over 16 strains
Description: (§1) The antibacterial activities of the hydrates of erythromycin salts are determined by culturing clinically obtained bacteria and measuring in accordance with pharmacological test methods (the tube double dilution method), and the results are shown in the following tables 9, 10, 11 and 12.

[6] = tested on: Propionibacterium; test: as above; type: cell-based; conditions: for MIC50 / MIC90: 18 strains; for MIC: range over 18 strains
Description: as §1

[7] = tested on: Bacillus influenzae; test: as above; type: cell-based; conditions: for MIC50 / MIC90: 17 strains; for MIC: range over 17 strains
Description: as §1

[8] = tested on: Pneumococcus; test: as above; type: cell-based; conditions: for MIC50 / MIC90: 18 strains; for MIC: range over 18 strains
Description: as §1

[9] = tested on: Neisseria gonorrhoeae; test: as above; type: cell-based; conditions: for MIC50 / MIC90: 16 strains; for MIC: range over 16 strains
Description: as §1

[10] = tested on: Bacillus fragilis; test: as above; type: cell-based; conditions: for MIC50 / MIC90: 15 strains; for MIC: range over 15 strains
Description: as §1

[11] = tested on: Anaerobe; test: as above; type: cell-based
Description: as §1

[12] = tested on: Streptococcus viridan; test: as above; type: cell-based; conditions: 23 strains
[13] = tested on: Escherichia coli; test: as above; type: cell-based; conditions: 21 strains
[14] = spray-dried product

Row | Structure (SMILES) | Assay (%) ([2]; month 0) | Form ([2]; month 0) | Assay (%) ([2]; month 1) | Form ([2]; month 1) | Assay (%) ([2]; month 2) | Form ([2]; month 2) | Assay (%) ([2]; month 3) | Form ([2]; month 3) | Assay (%) ([2]; month 6) | Form ([2]; month 6) | MIC50 [3] [mg/L] | MIC50 [4] [mg/L] | MIC50 [5] [mg/L] | MIC90 [5] [mg/L] | MIC [5] [mg/L] | MIC50 [6] [mg/L] | MIC90 [6] [mg/L] | MIC [6] [mg/L] | MIC50 [7] [mg/L] | MIC90 [7] [mg/L] | also measured
1 | CC[C@H]1OC(=O)[C@H](C)[C@@H](O[C@H]2C[C@@](C)(OC)[C@@H](O)[C@H](C)O2)[C@H](C)[C@@H](O[C@@H]2O[C@H](C)C[C@H](N(C)C)[C@H]2O)[C@](C)(O)C[C@@H](C)C(=O)[C@H](C)[C@@H](O)[C@]1(C)O.O=C(O)[C@H](O)[C@@H](O)[C@H](O[C@@H]1O[C@H](CO)[C@H](O)[C@H](O)[C@H]1O)[C@H](O)CO [Erythromycin lactobionate anhydrous, reference compound] |  |  |  |  |  |  |  |  |  |  |  |  |  |  |  |  |  |  |  |  | hygroscopicity (in words), compared with the anhydrous [1]: more hygroscopic
2 | CC[C@H]1OC(=O)[C@H](C)[C@@H](O[C@H]2C[C@@](C)(OC)[C@@H](O)[C@H](C)O2)[C@H](C)[C@@H](O[C@@H]2O[C@H](C)C[C@H](N(C)C)[C@H]2O)[C@](C)(O)C[C@@H](C)C(=O)[C@H](C)[C@@H](O)[C@]1(C)O.O.O.O.O.O.O.O=C(O)[C@H](O)[C@@H](O)[C@H](O[C@@H]1O[C@H](CO)[C@H](O)[C@H](O)[C@H]1O)[C@H](O)CO [erythromycin lactobionate hexahydrate] | 99.7 | off-white powder | 99.6 | off-white powder | 100.2 | off-white powder | 99.8 | off-white powder | 99.6 | off-white powder | 0.12 | 16 | 0.06 | 32 | 0.03 to 32 | 0.06 | 0.12 | 0.03 to 16 | 4 | 8 | MIC [7]: 0.12 to 8 mg/L; MIC50 [8]: 0.06 mg/L; MIC90 [8]: 1 mg/L; MIC [8]: 0.03 to 0.5 mg/L; MIC50 [9]: 0.25 mg/L; MIC90 [9]: 1 mg/L; MIC [9]: 0.06 to 2 mg/L; MIC50 [10]: 4 mg/L; MIC90 [10]: 16 mg/L; MIC [10]: 0.5 to 64 mg/L; MIC50 ([11]; 16 strains): 2 mg/L; MIC90 ([11]; 16 strains): 16 mg/L; MIC ([11]; range over 16 strains): 0.06 to 64 mg/L; MIC50 [12]: 0.06 mg/L; MIC90 [12]: 0.5 mg/L; MIC50 [13]: 4 mg/L
3 | CC[C@H]1OC(=O)[C@H](C)[C@@H](O[C@H]2C[C@@](C)(OC)[C@@H](O)[C@H](C)O2)[C@H](C)[C@@H](O[C@@H]2O[C@H](C)C[C@H](N(C)C)[C@H]2O)[C@](C)(O)C[C@@H](C)C(=O)[C@H](C)[C@@H](O)[C@]1(C)O.O.O.O.O.O.O=C(O)[C@H](O)[C@@H](O)[C@H](O[C@@H]1O[C@H](CO)[C@H](O)[C@H](O)[C@H]1O)[C@H](O)CO [erythromycin lactobionate pentahydrate] | 99.9 | off-white powder | 100.2 | off-white powder | 99.8 | off-white powder | 100.1 | off-white powder | 99.9 | off-white powder | 0.12 | 16 | 0.06 | 32 | 0.03 to 32 | 0.06 | 0.12 | 0.03 to 16 | 4 | 8 | MIC [7]: 0.12 to 8 mg/L; MIC50 [8]: 0.06 mg/L; MIC90 [8]: 1 mg/L; MIC [8]: 0.03 to 0.5 mg/L; MIC50 [9]: 0.25 mg/L; MIC90 [9]: 1 mg/L; MIC [9]: 0.06 to 2 mg/L; MIC50 [10]: 4 mg/L; MIC90 [10]: 16 mg/L; MIC [10]: 0.5 to 64 mg/L; MIC50 [12]: 0.06 mg/L; MIC90 [12]: 0.5 mg/L; MIC50 [13]: 4 mg/L; potency [14]: 626 u/mg
